In patent US20020137929A1, “1 - (3-heterocyclylphenyl) isothiourea, -isourea, -guanidine and -amidine herbicidal agents” (Intellectual Property Department, BASF Aktiengesellschaft, priority 1998, published 2002):

Columns and labels:
[1] = tested on: GALAP (Galium); assay: Postemergence herbicidal evaluation; assay type: in vivo, Galium aparine; settings: for GALAP herbicidal rating: postemergence
How it was run: (§1)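 Each compound, dispersed in an acetone/water mix (50/50) carrying 0.5% TWEEN 20, is nozzle-sprayed at 40 psi on approximately two-week-old seedlings at about 0.0156–0.500 kg/ha. Plants are assessed 4–5 weeks afterward on a 0–9 scale relative to control; duplicate tests are averaged.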

[2] = tested on: IPOHE (Morningglory, Ivyleaf); assay: Postemergence herbicidal evaluation; assay type: in vivo, Ipomoea hederacea; settings: for IPOHE herbicidal rating: postemergence
How it was run: as §1

[3] = tested on: SETVI (Foxtail, Green); assay: Postemergence herbicidal evaluation; assay type: in vivo, Setaria viridis; settings: for SETVI herbicidal rating: postemergence
How it was run: as §1

[4] = tested on: TRZAWR (Wheat, Winter, cv Riband); assay: Postemergence herbicidal evaluation; assay type: in vivo, Triticum aestivum; settings: for TRZAWR herbicidal rating: postemergence
How it was run: as §1

[5] = tested on: ABUTH (Velvetleaf); assay: Preemergence herbicidal evaluation; assay type: in vivo, Abutilon theophrasti; settings: rated 4-5 weeks after treatment; for ABUTH rating: preemergence, 0-9 scale
How it was run: (§2)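 Scores (0–9) reflect visual comparison with control plants for stand, vigor, malformation, size and chlorosis. Compound was applied to the soil after sowing, before emergence, as an aqueous acetone spray (about 0.0156–0.500 kg/ha), and cups were kept in a greenhouse for 4–5 weeks.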

[6] = tested on: IPOHE (Morningglory, Ivyleaf); assay: Preemergence herbicidal evaluation; assay type: in vivo, Ipomoea hederacea; settings: rated 4-5 weeks after treatment; for IPOHE rating: preemergence, 0-9 scale
How it was run: as §2

[7] = tested on: ECHCG (Barnyardgrass); assay: Preemergence herbicidal evaluation; assay type: in vivo, Echinochloa crus-galli; settings: rated 4-5 weeks after treatment; for ECHCG rating: preemergence, 0-9 scale
How it was run: as §2

[8] = tested on: SETVI (Foxtail, Green); assay: Preemergence herbicidal evaluation; assay type: in vivo, Setaria viridis; settings: rated 4-5 weeks after treatment; for SETVI rating: preemergence, 0-9 scale
How it was run: as §2

[9] = tested on: ZEAMX (Corn, Field); assay: Preemergence herbicidal evaluation; assay type: in vivo, Zea mays; settings: rated 4-5 weeks after treatment; for ZEAMX rating: preemergence, 0-9 scale
How it was run: as §2

[10] = tested on: ECHORC (Watergrass (Calif.)); assay: Preemergence weed control under flooded paddy conditions; assay type: in vivo, Echinochloa oryzoides; settings: rated 3-4 weeks after treatment
How it was run: (§3)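 Silt loam, seeds in top 0.5 cm; flood held 1.5-3 cm; test cpd as acetone/water 50/50 into flood water, ~0.0313-0.500 kg/ha a.i.; greenhouse 3-4 wk; visual 0-9 score vs control.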

[11] = tested on: CYPIR (Rice Flatsedge); assay: as above; assay type: in vivo, Cyperus iria; settings: rated 3-4 weeks after treatment
How it was run: as §3

[12] = tested on: MOOVA (Monochoria); assay: as above; assay type: in vivo, Monochoria vaginalis; settings: rated 3-4 weeks after treatment
How it was run: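 Greenhouse paddy assay. Acetone/water (50/50 v/v) solutions dosed into flood water, equivalent to about 0.0313 to 0.500 kg/ha active ingredient, over seeds planted 0.5 cm deep in silt loam. Score: 0-9 visual, based on stand, vigor, malformation, size and chlorosis, 3 to 4 weeks after treatment.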

[13] = tested on: ECHORC (Watergrass (Calif.)); assay: Postemergence weed control under flooded paddy conditions; assay type: in vivo, Echinochloa oryzoides; settings: postemergence weeds
How it was run: (§4)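 Weeds 3 to 5 cm tall and rice seedlings at the 1.5 to 2.5 leaf stage were flooded, with water held 1.5 to 3 cm above the soil. Compounds in 50/50 v/v aqueous/acetone went into the flood water at about 0.0313 to 0.500 kg/ha. Visual 0-9 ratings versus control were made 3 to 4 weeks later.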

[14] = tested on: SAGPY (Arrowhead (Pygmaea)); assay: as above; assay type: in vivo, Sagittaria pygmaea; settings: postemergence weeds
How it was run: as §4

[15] = rate 0.0313 kg/ha, 3-4 weeks after treatment
[16] = rate 0.0625 kg/ha, 3-4 weeks after treatment
[17] = rate 0.1250 kg/ha, 3-4 weeks after treatment
[18] = rate 0.2500 kg/ha, 3-4 weeks after treatment
[19] = Rate 0.0313 kg/ha, rated 3 to 4 weeks after treatment
[20] = Rate 0.0625 kg/ha, rated 3 to 4 weeks after treatment
[21] = Rate 0.1250 kg/ha, rated 3 to 4 weeks after treatment
[22] = Rate 0.2500 kg/ha, rated 3 to 4 weeks after treatment

## CCOC(=O)COc1ccccc1CC1S/C(=N/c2cc(-n3c(=O)cc(C(F)(F)F)n(C)c3=O)c(F)cc2Cl)N(CC(=O)OCC)C1=O (stereo not shown) [Compound 42, 2-{{2-Chloro-5-[3,6-dihydro-3-methyl-2,6-dioxo-4-(trifluoromethyl)-1(2H)-pyrimidinyl]-4-fluoro-phenyl}imino}-5-(o-hydroxybenzyl)-4-oxo-3-thiazolidineacetic acid, ethyl ester, ester with ethyl glycolate]
[1]; Rate 0.0158 kg/ha
  Postemergence herbicidal rating GALAP: 1.0
[1]; Rate 0.0315 kg/ha
  Postemergence herbicidal rating GALAP: 3.0
[1]; Rate 0.0630 kg/ha
  Postemergence herbicidal rating GALAP: 3.0
[2]; Rate 0.0158 kg/ha
  Postemergence herbicidal rating IPOHE: 9.0
[2]; Rate 0.0315 kg/ha
  Postemergence herbicidal rating IPOHE: 9.0
[2]; Rate 0.0630 kg/ha
  Postemergence herbicidal rating IPOHE: 9.0
[3]; Rate 0.0158 kg/ha
  Postemergence herbicidal rating SETVI: 0.0
[3]; Rate 0.0315 kg/ha
  Postemergence herbicidal rating SETVI: 1.0
[3]; Rate 0.0630 kg/ha
  Postemergence herbicidal rating SETVI: 1.0
[4]; Rate 0.0158 kg/ha
  Postemergence herbicidal rating TRZAWR: 3.5
[4]; Rate 0.0315 kg/ha
  Postemergence herbicidal rating TRZAWR: 3.5
[4]; Rate 0.0630 kg/ha
  Postemergence herbicidal rating TRZAWR: 3.5
[5]; rate 0.0313 kg/ha
  Preemergence herbicidal rating ABUTH: 1.0
[5]; rate 0.0625 kg/ha
  Preemergence herbicidal rating ABUTH: 1.0
[5]; rate 0.1250 kg/ha
  Preemergence herbicidal rating ABUTH: 9.0
[5]; rate 0.2500 kg/ha
  Preemergence herbicidal rating ABUTH: 9.0
[6]; rate 0.0313 kg/ha
  Preemergence herbicidal rating IPOHE: 0.0
[6]; rate 0.0625 kg/ha
  Preemergence herbicidal rating IPOHE: 0.0
[6]; rate 0.1250 kg/ha
  Preemergence herbicidal rating IPOHE: 0.0
[6]; rate 0.2500 kg/ha
  Preemergence herbicidal rating IPOHE: 0.0
[7]; rate 0.0313 kg/ha
  Preemergence herbicidal rating ECHCG: 0.0
[7]; rate 0.0625 kg/ha
  Preemergence herbicidal rating ECHCG: 0.0
[7]; rate 0.1250 kg/ha
  Preemergence herbicidal rating ECHCG: 0.0
[7]; rate 0.2500 kg/ha
  Preemergence herbicidal rating ECHCG: 0.0
[8]; rate 0.0313 kg/ha
  Preemergence herbicidal rating SETVI: 0.0
[8]; rate 0.0625 kg/ha
  Preemergence herbicidal rating SETVI: 1.0
[8]; rate 0.1250 kg/ha
  Preemergence herbicidal rating SETVI: 0.0
[8]; rate 0.2500 kg/ha
  Preemergence herbicidal rating SETVI: 0.0
[9]; rate 0.0313 kg/ha
  Preemergence herbicidal rating ZEAMX: 0.0
[9]; rate 0.0625 kg/ha
  Preemergence herbicidal rating ZEAMX: 1.0
[9]; rate 0.1250 kg/ha
  Preemergence herbicidal rating ZEAMX: 0.0
[9]; rate 0.2500 kg/ha
  Preemergence herbicidal rating ZEAMX: 1.0
[10]; 0.0313 kg/ha
  Herbicidal rating ECHORC: 5.0
[10]; 0.0625 kg/ha
  Herbicidal rating ECHORC: 5.0
[10]; 0.1250 kg/ha
  Herbicidal rating ECHORC: 5.0
[10]; 0.2500 kg/ha
  Herbicidal rating ECHORC: 6.0
[11]; 0.0313 kg/ha
  Herbicidal rating CYPIR: 0.0
[11]; 0.0625 kg/ha
  Herbicidal rating CYPIR: 0.0
[11]; 0.1250 kg/ha
  Herbicidal rating CYPIR: 0.0
[11]; 0.2500 kg/ha
  Herbicidal rating CYPIR: 0.0
[12]; 0.0313 kg/ha
  Herbicidal rating MOOVA: 7.0
[12]; 0.0625 kg/ha
  Herbicidal rating MOOVA: 9.0
[12]; 0.1250 kg/ha
  Herbicidal rating MOOVA: 9.0
[12]; 0.2500 kg/ha
  Herbicidal rating MOOVA: 9.0
[13]; [15]
  Herbicidal rating ECHORC: 5.0
[13]; [16]
  Herbicidal rating ECHORC: 5.0
[13]; [17]
  Herbicidal rating ECHORC: 5.0
[13]; [18]
  Herbicidal rating ECHORC: 6.0
[14]; [15]
  Herbicidal rating SAGPY: 0.0
[14]; [16]
  Herbicidal rating SAGPY: 0.0
[14]; [17]
  Herbicidal rating SAGPY: 0.0
[14]; [18]
  Herbicidal rating SAGPY: 3.0

## C=CCN1C(=O)C(CC(=O)NOC)SC1=Nc1cc(-n2c(=O)cc(C(F)(F)F)n(C)c2=O)c(F)cc1Cl (stereo not shown) [Compound 85]
[1]; rate 0.0156 kg/ha
  GALAP herbicidal rating: 0.0
[1]; rate 0.0313 kg/ha
  GALAP herbicidal rating: 1.0
[1]; rate 0.0625 kg/ha
  GALAP herbicidal rating: 3.0
[1]; rate 0.1250 kg/ha
  GALAP herbicidal rating: 5.0
[2]; rate 0.0156 kg/ha
  IPOHE herbicidal rating: 9.0
[2]; rate 0.0313 kg/ha
  IPOHE herbicidal rating: 9.0
[2]; rate 0.0625 kg/ha
  IPOHE herbicidal rating: 9.0
[2]; rate 0.1250 kg/ha
  IPOHE herbicidal rating: 9.0
[3]; rate 0.0156 kg/ha
  SETVI herbicidal rating: 0.0
[3]; rate 0.0313 kg/ha
  SETVI herbicidal rating: 0.0
[3]; rate 0.0625 kg/ha
  SETVI herbicidal rating: 9.0
[3]; rate 0.1250 kg/ha
  SETVI herbicidal rating: 9.0
[4]; rate 0.0156 kg/ha
  TRZAWR herbicidal rating: 3.0
[4]; rate 0.0313 kg/ha
  TRZAWR herbicidal rating: 3.5
[4]; rate 0.0625 kg/ha
  TRZAWR herbicidal rating: 4.5
[4]; rate 0.1250 kg/ha
  TRZAWR herbicidal rating: 5.0
[5]; 0.0156 kg/ha
  ABUTH rating: 0.0
[5]; 0.0313 kg/ha
  ABUTH rating: 9.0
[5]; 0.0625 kg/ha
  ABUTH rating: 9.0
[5]; 0.1250 kg/ha
  ABUTH rating: 9.0
[5]; 0.2500 kg/ha
  ABUTH rating: 9.0
[5]; 0.5000 kg/ha
  ABUTH rating: 9.0
[6]; 0.0156 kg/ha
  IPOHE rating: 0.0
[6]; 0.0313 kg/ha
  IPOHE rating: 0.0
[6]; 0.0625 kg/ha
  IPOHE rating: 2.0
[6]; 0.1250 kg/ha
  IPOHE rating: 5.0
[6]; 0.2500 kg/ha
  IPOHE rating: 7.0
[6]; 0.5000 kg/ha
  IPOHE rating: 9.0
[7]; 0.0156 kg/ha
  ECHCG rating: 0.0
[7]; 0.0313 kg/ha
  ECHCG rating: 0.0
[7]; 0.0625 kg/ha
  ECHCG rating: 0.0
[7]; 0.1250 kg/ha
  ECHCG rating: 0.0
[7]; 0.2500 kg/ha
  ECHCG rating: 0.0
[7]; 0.5000 kg/ha
  ECHCG rating: 4.0
[8]; 0.0156 kg/ha
  SETVI rating: 0.0
[8]; 0.0313 kg/ha
  SETVI rating: 0.0
[8]; 0.0625 kg/ha
  SETVI rating: 0.0
[8]; 0.1250 kg/ha
  SETVI rating: 0.0
[8]; 0.2500 kg/ha
  SETVI rating: 9.0
[8]; 0.5000 kg/ha
  SETVI rating: 9.0
[9]; 0.0156 kg/ha
  ZEAMX rating: 0.0
[9]; 0.0313 kg/ha
  ZEAMX rating: 0.0
[9]; 0.0625 kg/ha
  ZEAMX rating: 0.0
[9]; 0.1250 kg/ha
  ZEAMX rating: 2.0
[9]; 0.2500 kg/ha
  ZEAMX rating: 5.0
[9]; 0.5000 kg/ha
  ZEAMX rating: 9.0
[10]; 0.0313 kg/ha
  ECHORC herbicidal effect rating: 4.0
[10]; 0.0625 kg/ha
  ECHORC herbicidal effect rating: 5.0
[10]; 0.1250 kg/ha
  ECHORC herbicidal effect rating: 7.0
[10]; 0.2500 kg/ha
  ECHORC herbicidal effect rating: 9.0
[11]; 0.0313 kg/ha
  CYPIR herbicidal effect rating: 3.0
[11]; 0.0625 kg/ha
  CYPIR herbicidal effect rating: 7.0
[11]; 0.1250 kg/ha
  CYPIR herbicidal effect rating: 9.0
[11]; 0.2500 kg/ha
  CYPIR herbicidal effect rating: 9.0
[12]; 0.0313 kg/ha
  MOOVA herbicidal effect rating: 9.0
[12]; 0.0625 kg/ha
  MOOVA herbicidal effect rating: 9.0
[12]; 0.1250 kg/ha
  MOOVA herbicidal effect rating: 9.0
[12]; 0.2500 kg/ha
  MOOVA herbicidal effect rating: 9.0
[13]; [19]
  Herbicidal rating ECHORC: 4.0
[13]; [20]
  Herbicidal rating ECHORC: 5.0
[13]; [21]
  Herbicidal rating ECHORC: 7.0
[13]; [22]
  Herbicidal rating ECHORC: 9.0
[14]; [19]
  Herbicidal rating SAGPY: 3.0
[14]; [20]
  Herbicidal rating SAGPY: 3.0
[14]; [21]
  Herbicidal rating SAGPY: 9.0
[14]; [22]
  Herbicidal rating SAGPY: 9.0
